Experimental data: patent publication US20170143712A1, “Methods of Treating Cancers, Immune and Autoimmune Diseases, and Inflammatory Diseases Based on BTK Occupancy and BTK Resynthesis Rate” (Acerta Pharma B.V., priority 2014, published 2017)
Entries after “also recorded” stand apart in the source; their conditions may differ.

How the values were obtained:
[1] = test system: established type II collagen-induced arthritis (CIA) in DBA/1 mice; test: 14-day mouse established type II collagen-induced arthritis (CIA), PO QD (Example 10); format: in vivo; settings: for AUC (All Paws) - Corrected for Initial Score / Change in Body Weight (g) / Histopathology Summed Score Knees / Histopathology Summed Score Paws / Histopathology Summed Score Six-Joints / Paw Score AUC (All Paws): mean(SE); for disease-induced body weight loss (percent change from baseline) vs vehicle controls / arthritis scores measured daily vs vehicle controls: p<0.05 on the days printed
BTK [2] = biological target: T1, BTK (Homo sapiens, UniProt Q06187); test: Intracellular total BTK protein in peripheral blood B lymphocytes of healthy volunteers (flow cytometry); format: in vivo
T1 sequence (Q06187 whole entry): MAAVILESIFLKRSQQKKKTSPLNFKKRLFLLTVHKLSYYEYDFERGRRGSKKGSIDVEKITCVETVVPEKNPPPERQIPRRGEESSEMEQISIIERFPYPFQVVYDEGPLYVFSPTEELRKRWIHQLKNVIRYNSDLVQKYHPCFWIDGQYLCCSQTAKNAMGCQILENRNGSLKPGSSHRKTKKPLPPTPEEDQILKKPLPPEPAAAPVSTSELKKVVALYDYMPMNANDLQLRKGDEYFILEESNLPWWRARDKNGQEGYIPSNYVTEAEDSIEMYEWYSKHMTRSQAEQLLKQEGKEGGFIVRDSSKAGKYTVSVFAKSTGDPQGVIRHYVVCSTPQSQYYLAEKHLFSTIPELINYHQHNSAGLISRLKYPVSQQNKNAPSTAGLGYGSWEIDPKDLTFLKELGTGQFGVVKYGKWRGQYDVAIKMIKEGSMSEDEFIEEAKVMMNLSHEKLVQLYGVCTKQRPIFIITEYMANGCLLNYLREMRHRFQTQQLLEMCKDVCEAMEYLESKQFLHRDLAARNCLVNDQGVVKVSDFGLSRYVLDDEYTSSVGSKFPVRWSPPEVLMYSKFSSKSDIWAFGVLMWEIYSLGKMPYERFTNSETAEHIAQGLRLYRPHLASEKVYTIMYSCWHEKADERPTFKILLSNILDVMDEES
Protocol: The percentage of pre-study BTK protein level was determined in cryopreserved B cells by flow cytometry analysis of Mean Fluorescence Intensity.

BTK [3] = biological target: T1, BTK; test: Per cell BTK protein level in CD19+/CD5+ CLL tumor cells (flow cytometry); format: in vivo; settings: 100 mg BID, after 4 weeks of treatment
Protocol: Peripheral blood samples were obtained and BTK protein levels were evaluated in CD19+/CD5+ tumor cells by flow cytometry.

B cell receptor (BCR) = test: Ex vivo anti-IgM induced CD86 and CD69 expression on splenocyte B cells after oral dosing of mice; format: in vivo; settings: Mus musculus, single oral 25 mg/kg, 3-24 hours, read-out: CD86 % inhibition over the entire time course
[4] = Plasma pharmacokinetics in CLL patients; format: in vivo; settings: human, oral administration
Description: In this indication, the rapid resynthesis of BTK in the tumor cells in the CLL cell compartment is observed as a steeper rate of decline in the percentage of BTK sites occupied by Formula (II), compared with what has been observed in normal peripheral blood cells of healthy volunteers (compare linear slope estimates of FIG. 25 with FIG. 34).

ID8 ovarian cancer = test: ID8 syngeneic orthotropic ovarian cancer murine model; format: in vivo, mouse; settings: 15 mg/kg/BID orally vs vehicle
Description: The ID8 syngeneic orthotropic ovarian cancer murine model was used to investigate the therapeutic efficacy of the BTK inhibitor of Formula (II) through treatment of the solid tumor microenvironment. Human ovarian cancer models, including the ID8 syngeneic orthotropic ovarian cancer model and other animal models, are described in Fong and Kakar, J. Ovarian Res. 2009, 2, 12; Greenaway, et al., Gynecol. Oncol. 2008, 108, 385-94; Urzua, et al., Tumour Biol. 2005, 26, 236-44; Janat-Amsbury, et al., Anticancer Res. 2006, 26, 3223-28; Janat-Amsbury, et al., Anticancer Res. 2006, 26, 2785-89. Animals were treated with vehicle or Formula (II), 15 mg/kg/BID given orally. The results of the study are shown in FIG. 35A, FIG. 35B, FIG. 36, FIG. 37, FIG. 38A, FIG. 38B, FIG. 39A, and FIG. 39B.

[5] = 5 mg/kg PO QD, therapeutic paws only
[6] = 25 mg/kg PO QD, therapeutic paws only

With `CC#CC(=O)N1CCC[C@H]1c1nc(-c2ccc(C(=O)Nc3ccccn3)cc2)c2c(N)nccn12` [Formula (II), (S)-4-(8-amino-3-(1-(but-2-ynoyl)pyrrolidin-2-yl)imidazo[1,5-a]pyrazin-1-yl)-N-(pyridin-2-yl)benzamide] the “AUC (All Paws) - Corrected for Initial Score” value (shortened to “AUC (All Paws) - Corrected”) ([1]; 1 mg/kg PO QD) was 14.99(3.62), the “Change in Body Weight (g)” value ([1]; 1 mg/kg PO QD) was −0.36(0.77) g and the “Histopathology Summed Score Knees” value ([1]; 1 mg/kg PO QD) was 4.90(1.32). The “Histopathology Summed Score Paws” value ([1]; 1 mg/kg PO QD) was 7.95(1.54), the “Histopathology Summed Score Six-Joints” value ([1]; 1 mg/kg PO QD) was 6.93(1.22) and the “Paw Score AUC (All Paws)” value ([1]; 1 mg/kg PO QD) was 22.14(4.11). The “disease-induced body weight loss (percent change from baseline) vs vehicle controls” value ([1]; 1 mg/kg PO QD) was “significantly inhibited toward normal”, the “daily arthritis scores vs vehicle controls” value ([1]; 1 mg/kg PO QD, prophylactic paws) was “significantly reduced toward normal” and the knee histopathology parameters ([1]; 1 mg/kg, compared to 1 mg/kg ibrutinib) was “significantly improved”. For the same compound, the “six-joint histopathology, reduction of summed scores vs vehicle controls” value ([1]; 5 mg/kg PO QD) was 86%, the “total body weight loss from enrollment to study termination” value ([1]; 5 mg/kg PO QD) was “significantly inhibited” and the “Clinical arthritis scores AUC, reduction vs vehicle controls” value ([1]; 5 mg/kg PO QD, all paws) was 82%. For the same compound, the “Clinical arthritis scores AUC, reduction when corrected for initial enrollment score” value ([1]; 5 mg/kg PO QD, all paws) was 99%, the “arthritis scores measured daily vs vehicle controls” value ([1]; 5 mg/kg PO QD, all paws) was “significantly reduced toward normal” and the “AUC (All Paws) - Corrected” value ([1]; 5 mg/kg PO QD) was “*0.43(2.76)”. For the same compound, the “Change in Body Weight (g)” value ([1]; 5 mg/kg PO QD) was “*1.23(0.52) g”, the “Histopathology Summed Score Knees” value ([1]; 5 mg/kg PO QD) was “*1.48(0.94)” and the “Histopathology Summed Score Paws” value ([1]; 5 mg/kg PO QD) was “*2.23(0.72)”. For the same compound, the “Histopathology Summed Score Six-Joints” value ([1]; 5 mg/kg PO QD) was “*1.98(0.69)”, the “Paw Score AUC (All Paws)” value ([1]; 5 mg/kg PO QD) was “*7.58(2.63)” and the “disease-induced body weight loss (percent change from baseline) vs vehicle controls” value ([1]; 5 mg/kg PO QD) was “significantly inhibited toward normal”. The “daily arthritis scores vs vehicle controls” value ([1]; 5 mg/kg PO QD, prophylactic paws) was “significantly reduced toward normal”, the “Clinical arthritis scores AUC, reduction vs vehicle controls” value ([1]; 5 mg/kg PO QD, prophylactic paws only) was 94% and the “daily arthritis scores vs vehicle controls” value ([1]; 5 mg/kg PO QD, therapeutic paws) was “significantly reduced toward normal”. The “Clinical arthritis scores AUC, reduction vs vehicle controls” value [1, 5] was 64%, the “Clinical arthritis scores AUC, reduction when corrected for initial enrollment score” value [1, 5] was 110% and the “six-joint histopathology, reduction of summed scores vs vehicle controls” value ([1]; 25 mg/kg PO QD) was 93%. The “total body weight loss from enrollment to study termination” value ([1]; 25 mg/kg PO QD) was “significantly inhibited”, the “Clinical arthritis scores AUC, reduction vs vehicle controls” value ([1]; 25 mg/kg PO QD, all paws) was 95% and the “Clinical arthritis scores AUC, reduction when corrected for initial enrollment score” value ([1]; 25 mg/kg PO QD, all paws) was 115%. For the same compound, the “arthritis scores measured daily vs vehicle controls” value ([1]; 25 mg/kg PO QD, all paws) was “significantly reduced toward normal”, the “AUC (All Paws) - Corrected” value ([1]; 25 mg/kg PO QD) was “*−5.24(1.36)” and the “Change in Body Weight (g)” value ([1]; 25 mg/kg PO QD) was “*1.01(0.66) g”. For the same compound, the “Histopathology Summed Score Knees” value ([1]; 25 mg/kg PO QD) was “*1.25(0.43)”, the “Histopathology Summed Score Paws” value ([1]; 25 mg/kg PO QD) was “*0.94(0.40)” and the “Histopathology Summed Score Six-Joints” value ([1]; 25 mg/kg PO QD) was “*1.04(0.36)”. For the same compound, the “Paw Score AUC (All Paws)” value ([1]; 25 mg/kg PO QD) was “*1.91(0.96)”, the “disease-induced body weight loss (percent change from baseline) vs vehicle controls” value ([1]; 25 mg/kg PO QD) was “significantly inhibited toward normal” and the “daily arthritis scores vs vehicle controls” value ([1]; 25 mg/kg PO QD, prophylactic paws) was “significantly reduced toward normal”. The “Clinical arthritis scores AUC, reduction vs vehicle controls” value ([1]; 25 mg/kg PO QD, prophylactic paws only) was 100%, the “daily arthritis scores vs vehicle controls” value ([1]; 25 mg/kg PO QD, therapeutic paws) was “significantly reduced toward normal” and the “Clinical arthritis scores AUC, reduction vs vehicle controls” value [1, 6] was 89%. The “Clinical arthritis scores AUC, reduction when corrected for initial enrollment score” value [1, 6] was 152%, the “spleen weights compared to vehicle controls” value ([1]; all dose groups PO QD) was “not significantly affected” and the “intracellular total BTK protein level in B lymphocytes” value (BTK [2]; 15 mg QD x 7 days, after 48 hours (between Day 2 and Day 3)) was “Decreased BTK levels; also recorded: decrease”. The “intracellular total BTK protein level in B lymphocytes” value (BTK [2]; 15 mg QD, after the initial dose) was “increased”, the “decrease in BTK protein expression per cell (median, of pre-dose values)” value (BTK [3]) was 26% and the inhibition at 25 mg/kg (B cell receptor (BCR)) was 67.9%. The Tmax [4] was roughly 1 h, the “CD8+ T cells” value (ID8 ovarian cancer) was “increase” and the “ID8 ovarian cancer growth” value (ID8 ovarian cancer) was “impairs ID8 ovarian cancer growth”. The “immunosuppressive B cells in tumor-bearing mice” value (ID8 ovarian cancer) was “significant reduction”, the “immunosuppressive tumor associated Tregs” value (ID8 ovarian cancer) was “significant reduction” and the immunosuppressive tumor-associated lymphocytes (ID8 ovarian cancer) was “significant reduction”.
